{"source": "paper PMC8132112", "about": "(Cancer letters, 2018)", "target": "ABCB1 (Homo sapiens, UniProt P08183)", "sequence (P08183 whole entry)": "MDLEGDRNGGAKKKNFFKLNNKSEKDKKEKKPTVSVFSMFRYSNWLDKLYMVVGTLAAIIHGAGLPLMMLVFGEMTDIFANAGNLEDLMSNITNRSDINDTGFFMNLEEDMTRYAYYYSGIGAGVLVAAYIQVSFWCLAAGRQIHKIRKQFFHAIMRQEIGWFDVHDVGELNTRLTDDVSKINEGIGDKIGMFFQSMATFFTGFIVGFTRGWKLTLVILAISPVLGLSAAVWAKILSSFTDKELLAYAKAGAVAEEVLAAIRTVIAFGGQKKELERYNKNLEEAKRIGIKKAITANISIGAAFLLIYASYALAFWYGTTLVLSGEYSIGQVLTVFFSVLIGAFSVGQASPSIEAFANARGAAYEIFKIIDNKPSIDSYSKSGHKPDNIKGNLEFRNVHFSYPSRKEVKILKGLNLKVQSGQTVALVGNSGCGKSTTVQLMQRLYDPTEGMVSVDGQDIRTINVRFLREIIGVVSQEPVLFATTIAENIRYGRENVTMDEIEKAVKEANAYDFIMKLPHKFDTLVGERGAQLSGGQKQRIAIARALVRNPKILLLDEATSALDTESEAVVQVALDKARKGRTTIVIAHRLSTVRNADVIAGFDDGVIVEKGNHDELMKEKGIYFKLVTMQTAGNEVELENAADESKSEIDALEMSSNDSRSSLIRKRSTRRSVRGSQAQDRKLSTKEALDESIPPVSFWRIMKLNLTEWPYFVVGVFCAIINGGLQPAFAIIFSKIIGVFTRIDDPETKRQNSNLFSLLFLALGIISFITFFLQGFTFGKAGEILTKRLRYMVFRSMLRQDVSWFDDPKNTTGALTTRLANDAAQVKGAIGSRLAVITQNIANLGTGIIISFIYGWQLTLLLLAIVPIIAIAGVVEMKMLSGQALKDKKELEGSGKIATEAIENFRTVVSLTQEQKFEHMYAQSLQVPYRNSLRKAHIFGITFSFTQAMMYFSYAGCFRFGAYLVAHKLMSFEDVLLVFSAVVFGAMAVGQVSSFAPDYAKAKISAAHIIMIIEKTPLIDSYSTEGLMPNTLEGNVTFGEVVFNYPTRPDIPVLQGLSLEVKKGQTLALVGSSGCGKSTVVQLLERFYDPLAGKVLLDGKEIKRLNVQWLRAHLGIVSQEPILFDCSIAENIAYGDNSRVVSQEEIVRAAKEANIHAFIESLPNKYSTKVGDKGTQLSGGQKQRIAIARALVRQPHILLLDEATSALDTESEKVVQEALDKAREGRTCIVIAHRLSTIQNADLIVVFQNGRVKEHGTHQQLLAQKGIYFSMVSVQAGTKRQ", "data": [{"smiles": "CC(=O)O[C@H]1C(=O)[C@@]2(C)[C@H]([C@H](OC(=O)c3ccccc3)[C@]3(O)C[C@H](OC(=O)[C@H](O)[C@@H](NC(=O)c4ccccc4)c4ccccc4)C(C)=C1C3(C)C)[C@]1(OC(C)=O)CO[C@@H]1C[C@@H]2O", "note": "[paclitaxel]", "values": [{"measurement": "radiolabelled substrate efflux from ABCB1-overexpressing cells", "result": "selonsertib significantly decreased the efflux of [^3H]-paclitaxel in ABCB1-overexpressing cell lines KB-C2 and SW620/Ad300"}]}]}
